Test results reported in patent publication US9163025B2, “Stable complexes of an alkaline earth metal salt of N5-methyl-tetrahydrofolic acid and a polyol” (CERBIOS-PHARMA SA, priority 2013, dated 2015).

Experiment: Accelerated stability of calcium (6S) N5-methyl-tetrahydrofolate products (HPLC related substances and assay)
Assay type: physicochemical
Conditions: 25° C. and 40% relative humidity
Experimental: Determination of related substances of calcium (6S)—N^5-methyl-(5,6,7,8)-tetrahydrofolate by HPLC method
25±3 mg of (6S)-5-methyl-tetrahydrofolic acid calcium salt calculated on dry base were placed in a 50 ml volumetric flask and added with 320 μl of acid ascorbic solution and water until the final volume was reached. The solution was transferred in a HPLC vial and the sample injected immediately.
Analysis: 10 μl of the sample solution were Injected, the chromatogram recorded (analytical wavelength 280±16 nm) and the peak response measured.
the liquid chromatograph was equipped with a Hypersil ODS column (length 250 mm, ID 4 mm, particle size 5 μm). The column was coupled with a diode array detector for the detection wavelength of 280±16 nm
Determination of assay by HPLC of calcium (6RS) and (6S) N^5-methyl-tetrahydrofolate
75-85 mg of sample were dissolved in 200 ml water within a 250 ml volumetric flask. 1 ml of the ascorbic acid solution was added and dilute to 250 ml with water. A total of three sample solutions were prepared.
The HPLC system was verified and calibrated by injecting the standard solutions. Once each of the three prepared sample solutions were injected followed by one standard solution as calibration control.
The liquid chromatograph was equipped with an analytical column such ACE 5 C18, 250 mm×2.1 mm, with particle size 5 μm.
acetonitrile 12%, phosphate buffer pH 6.5 80%, methanol+2-mercaptoethanol 8%.
column temperature: 25° C., isocratic mode, flow rate: 0.41 ml/min, injection volume: 5 μl, run time: 13.5 min, analytical wavelength: 290 nm.
The stability of the complexes according to the present invention prepared by spray-drying or lyophilization as described in examples 5 and 7 was tested in comparison with the stability of (6S)—N^5-methyl-tetrahydrofolate calcium salt alone. Preparations obtained through different technologies, such as evaporation of the solvent from the solution, as reported in examples 2, 3 and 4, were also assessed for stability. Accelarated stability experiments at 25° C. and 40% relative humidity were carried out.

Decrease of 5MeTHF % content (4 weeks): −2.70%
Increase of D2 % content (4 weeks): 1.30%
Decrease of 5MeTHF % content (12 weeks): −2.80%
Increase of D2 % content (12 weeks): 1.40%
Decrease of 5MeTHF % content (24 weeks): −5.6%
Increase of D2 % content (24 weeks): 2.3%
Compound: CN1c2c(nc(N)[nH]c2=O)NC[C@@H]1CNc1ccc(C(=O)N[C@@H](CCC(=O)[O-])C(=O)[O-])cc1.[Ca+2] [Product 5MeTHF, (6S)—N^5-methyl-(5,6,7,8)-tetrahydrofolate calcium salt]
